Data reported in patent publication US10865222B2, “Neisseria gonorrhoeae therapeutic based on CMP-nonulosonate sugars” (priority 2014, dated 2020).

Experiments:
Ng F62 (wildtype [WT]) = assay: BALB/c vaginal colonization model, Ng F62; format: in vivo, N. gonorrhoeae; conditions: 10 μg intravaginally daily
Procedure: FIG. 13. […] A and B. Efficacy of CMP-Leg5Ac7Ac against Ng F62. 17β-estradiol treated BALB/c mice were infected with i) Ng F62 (wildtype [WT]) and treated (CMP-Leg5Ac7Ac, 10 μg intravaginally, daily), ii) Ng F62 WT→saline (No treatment) or iii) Ng F62 Δlst (cannot sialylate LOS), untreated. Ng load in the vagina was enumerated daily. A. Time to clearance. B. Area under the curve (AUC; each point represents the AUC of CFU vs. time for each mouse). Horizontal bar, geometric mean. C and D. Efficacy of CMP-Leg5Ac7Ac vs ceftriaxone-resistant isolate H041. Time to clearance (C) and AUC analysis (D) are described above.
The efficacy of CMP-Leg5Ac7Ac against Ng was tested in the BALB/c vaginal colonization model (FIG. 13) (51). Three groups of 17β-estradiol treated BALB/c mice (10 mice/group) were infected as follows: i) WT F62→CMP-Leg5Ac7Ac (10 μg intravaginally daily), ii) WT F62→saline control (‘untreated’) and iii) F62 List (cannot sialylate LOS)→untreated.

[1] = format: physicochemical
Text: Importantly, Neu5Ac9Az/Neu5Ac9Ac and Leg5Ac7Ac differ from Neu5Ac at carbon 9 and carbons 7 and 9, respectively. As well, Neu5Gc8Me differs from Neu5Gc at carbon 8. As such, carbons 7, 8 and 9 within the exocyclic moiety of nonulosonate sugars appear to play a critical role in the avoidance of serum mediated killing by N. gonorrhoeae, as evidenced by the enhanced serum-mediated killing with CMP-Neu5Ac9Az, CMP-Neu5Ac9Ac, CMP-Leg5Ac7Ac and CMP-Neu5Gc8Me, that was not observed with either CMP-Neu5Ac or CMP-Neu5Gc only feeding controls.

Compound | Ng infection (time to clearance, AUC of CFU vs. time) (Ng F62 (wildtype [WT]); 17β-estradiol treated BALB/c mice, vs saline) | sensitivity to human complement of bacteria recovered directly from treated mice (Ng F62 (wildtype [WT]); BALB/c mice, not shown) | stability of the preparation [1]
5,7-diacetamido-3,5,7,9-tetradeoxy-D-glycero-D-galacto-nonulosonic acid [CMP-Leg5Ac7Ac] | significantly attenuated Ng infection | became sensitive to human complement | 
CC(=O)N[C@H]1[C@H]([C@H](O)[C@H](O)COC(C)=O)OC(OP(=O)(O)OC[C@H]2O[C@@H](n3ccc(N)nc3=O)[C@H](O)[C@@H]2O)(C(=O)O)C[C@@H]1O (stereo partly drawn) [CMP-Neu5Ac9Ac, CMP-5-acetamido-9-O-acetyl-3,5-dideoxy-D-glycero-D-galacto-nonulosonic acid] |  |  | spontaneous breakdown of the 9OAc group
